According to ChEMBL document CHEMBL1122998, “New antihistaminic theophylline or theobromine derivatives” (1985):

Experiments:
Cavia porcellus [1] = assay: Percentage decrease in bronchodilator activity against serotonin-induced bronchospasm reaction in guinea pig by intraveneous administration at dose 250 ug/kg; type: functional
Cavia porcellus [2] = assay: Percent decrease in bronchodilator activity against acetylcholine-induced bronchospasm reaction in guinea pig by intraveneous administration at dose 250 ug/kg; type: functional
Rattus norvegicus [3] = assay: Percent decrease in antiallergic activity by antigen/antibody reaction assay in rat by oral administration at a dose of 10 mg/kg; type: functional
Rattus norvegicus [4] = assay: Percentage decrease in antiallergic activity against cutaneous reaction to histamine in rat, by oral administration at a dose of 10 mg/kg; type: functional
Cavia porcellus [5] = assay: Percent decrease in bronchodilator activity against histamine-induced bronchospasm reaction in guinea pig by intraveneous administration at dose 10.5 ug/kg

## Cn1cnc2c1c(=O)n(CC(O)CN1CCN(CCCSc3ccc(Cl)cc3)CC1)c(=O)n2C (stereo not drawn)
Cavia porcellus [1]
  Decrease: 8%
Cavia porcellus [2]
  Decrease: 11%
Rattus norvegicus [3]
  Decrease: 0%
Rattus norvegicus [4]
  Decrease: 0%
Cavia porcellus [5]
  Decrease: 0%

## Cn1c(=O)c2c(ncn2CCCN2CCN(CCCCSc3ccc(Cl)cc3)CC2)n(C)c1=O
Cavia porcellus [1]
  Decrease: 23%
Cavia porcellus [2]
  Decrease: 26%
Rattus norvegicus [3]
  Decrease: 0%
Rattus norvegicus [4]
  Decrease: 0%
Cavia porcellus [5]
  Decrease: 3%

## COc1ccc(OCCCN2CCN(CCCn3cnc4c3c(=O)n(C)c(=O)n4C)CC2)cc1
Cavia porcellus [1]
  Decrease: 0%
Cavia porcellus [2]
  Decrease: 25%
Rattus norvegicus [3]
  Decrease: 0%
Rattus norvegicus [4]
  Decrease: 0%
Cavia porcellus [5]
  Decrease: 60%

## Cn1cnc2c1c(=O)n(CC(O)CN1CCN(CCCOc3ccccc3)CC1)c(=O)n2C (stereo not drawn)
Cavia porcellus [1]
  Decrease: 50%
Cavia porcellus [2]
  Decrease: 0%
Rattus norvegicus [3]
  Decrease: 76%
Rattus norvegicus [4]
  Decrease: 30%
Cavia porcellus [5]
  Decrease: 10%

## Cn1c(=O)c2c(ncn2CC(=O)N2CCN(CCCSc3ccccc3)CC2)n(C)c1=O
Cavia porcellus [1]
  Decrease: 21%
Cavia porcellus [2]
  Decrease: 16%
Rattus norvegicus [3]
  Decrease: 15%
Rattus norvegicus [4]
  Decrease: 10%
Cavia porcellus [5]
  Decrease: 31%

## Cn1cnc2c1c(=O)n(CC(O)CN1CCN(CCCSc3ccccc3)CC1)c(=O)n2C (stereo not drawn)
Cavia porcellus [1]
  Decrease: 96%
Cavia porcellus [2]
  Decrease: 24%
Rattus norvegicus [3]
  Decrease: 43%
Rattus norvegicus [4]
  Decrease: 10%
Cavia porcellus [5]
  Decrease: 66%

## Cn1c(=O)c2c(ncn2CCN2CCN(CCCSc3ccccc3)CC2)n(C)c1=O
Cavia porcellus [1]
  Decrease: 48%
Cavia porcellus [2]
  Decrease: 0%
Rattus norvegicus [3]
  Decrease: 28%
Rattus norvegicus [4]
  Decrease: 21%
Cavia porcellus [5]
  Decrease: 0%

## Cn1c(=O)c2c(ncn2CCC(=O)N2CCN(CCCSc3ccccc3)CC2)n(C)c1=O
Cavia porcellus [1]
  Decrease: 0%
Cavia porcellus [2]
  Decrease: 3%
Rattus norvegicus [3]
  Decrease: 0%
Rattus norvegicus [4]
  Decrease: 0%
Cavia porcellus [5]
  Decrease: 2%

## Cc1ccc(SCCCN2CCN(CCCn3c(=O)c4c(ncn4C)n(C)c3=O)CC2)cc1
Cavia porcellus [1]
  Decrease: 6%
Cavia porcellus [2]
  Decrease: 24%
Rattus norvegicus [3]
  Decrease: 0%
Rattus norvegicus [4]
  Decrease: 6.5%
Cavia porcellus [5]
  Decrease: 13%

## Cn1c(=O)c2c(ncn2CCCN2CCN(CCCCOc3ccccc3)CC2)n(C)c1=O
Cavia porcellus [1]
  Decrease: 26%
Cavia porcellus [2]
  Decrease: 35%
Rattus norvegicus [3]
  Decrease: 0%
Rattus norvegicus [4]
  Decrease: 0%
Cavia porcellus [5]
  Decrease: 80%

## COc1ccc(OCCCN2CCN(CC(O)Cn3c(=O)c4c(ncn4C)n(C)c3=O)CC2)cc1 (stereo not drawn)
Cavia porcellus [1]
  Decrease: 3%
Cavia porcellus [2]
  Decrease: 11%
Rattus norvegicus [3]
  Decrease: 0%
Rattus norvegicus [4]
  Decrease: 0%
Cavia porcellus [5]
  Decrease: 28%

## Cn1c(=O)c2c(ncn2CCCN2CCN(CCOc3ccccc3)CC2)n(C)c1=O
Cavia porcellus [1]
  Decrease: 0%
Cavia porcellus [2]
  Decrease: 15%
Rattus norvegicus [3]
  Decrease: 0%
Rattus norvegicus [4]
  Decrease: 0%
Cavia porcellus [5]
  Decrease: 70%

## Cn1cnc2c1c(=O)n(CCCN1CCN(CCCSc3ccc(Cl)cc3)CC1)c(=O)n2C
Cavia porcellus [1]
  Decrease: 47%
Cavia porcellus [2]
  Decrease: 27%
Rattus norvegicus [3]
  Decrease: 17.5%
Rattus norvegicus [4]
  Decrease: 12%
Cavia porcellus [5]
  Decrease: 0%

## Cn1c(=O)c2c(ncn2CC(O)CN2CCN(CC(O)CSc3ccccc3)CC2)n(C)c1=O (stereo not drawn)
Cavia porcellus [1]
  Decrease: 0%
Cavia porcellus [2]
  Decrease: 0%
Rattus norvegicus [3]
  Decrease: 0%
Rattus norvegicus [4]
  Decrease: 29%
Cavia porcellus [5]
  Decrease: 89%

## Cn1c(=O)c2c(ncn2CC(O)CN2CCN(CCCCSc3ccccc3)CC2)n(C)c1=O (stereo not drawn)
Cavia porcellus [1]
  Decrease: 0%
Cavia porcellus [2]
  Decrease: 34%
Rattus norvegicus [3]
  Decrease: 0%
Rattus norvegicus [4]
  Decrease: 0%
Cavia porcellus [5]
  Decrease: 13%

## Cc1ccc(SCCCN2CCN(CC(O)Cn3cnc4c3c(=O)n(C)c(=O)n4C)CC2)cc1 (stereo not drawn)
Cavia porcellus [1]
  Decrease: 0%
Cavia porcellus [2]
  Decrease: 0%
Rattus norvegicus [3]
  Decrease: 19%
Rattus norvegicus [4]
  Decrease: 24%
Cavia porcellus [5]
  Decrease: 5%

## Cn1c(=O)c2c(ncn2CC(O)CN2CCN(CCCCOc3ccccc3)CC2)n(C)c1=O (stereo not drawn)
Cavia porcellus [1]
  Decrease: 22%
Cavia porcellus [2]
  Decrease: 45%
Rattus norvegicus [3]
  Decrease: 0%
Rattus norvegicus [4]
  Decrease: 0%
Cavia porcellus [5]
  Decrease: 82%

## Cn1c(=O)c2c(ncn2CCCCCCN2CCN(CCCCSc3ccccc3)CC2)n(C)c1=O
Cavia porcellus [1]
  Decrease: 23%
Cavia porcellus [2]
  Decrease: 23%
Rattus norvegicus [3]
  Decrease: 0%
Rattus norvegicus [4]
  Decrease: 0%
Cavia porcellus [5]
  Decrease: 0%

## Cn1c(=O)c2c(ncn2CCCN2CCN(CCCSc3ccc(Cl)cc3)CC2)n(C)c1=O
Cavia porcellus [1]
  Decrease: 0%
Cavia porcellus [2]
  Decrease: 0%
Rattus norvegicus [3]
  Decrease: 0%
Rattus norvegicus [4]
  Decrease: 0%
Cavia porcellus [5]
  Decrease: 25%

## CN(CCCSc1ccccc1)CCN(C)CCCn1cnc2c1c(=O)n(C)c(=O)n2C
Cavia porcellus [1]
  Decrease: 50%
Cavia porcellus [2]
  Decrease: 12%
Cavia porcellus [5]
  Decrease: 2%

## Cn1c(=O)c2c(ncn2CCCN2CCN(CCCOc3ccccc3)CC2)n(C)c1=O
Cavia porcellus [1]
  Decrease: 35%
Cavia porcellus [2]
  Decrease: 30%
Rattus norvegicus [3]
  Decrease: 48%
Rattus norvegicus [4]
  Decrease: 28%
Cavia porcellus [5]
  Decrease: 88%

## Cn1c(=O)c2c(ncn2CCCN2CCN(CCCOc3ccc(Cl)cc3)CC2)n(C)c1=O
Cavia porcellus [1]
  Decrease: 0%
Cavia porcellus [2]
  Decrease: 0%
Rattus norvegicus [3]
  Decrease: 0%
Rattus norvegicus [4]
  Decrease: 0%
Cavia porcellus [5]
  Decrease: 30%
